Data on five molecules can be found in PMC6430387, “Vertebrate odorant binding proteins as antimicrobial humoral components of innate immunity for pathogenic microorganisms” (PLoS ONE, 2019).

Format in all cases: binding
Test [1] concerns the target T1, bovine OBP (6-His-bOBP) (Bos taurus, UniProt P07435).
T1 construct: domain-swapped homodimer
T1 sequence (P07435 1-159): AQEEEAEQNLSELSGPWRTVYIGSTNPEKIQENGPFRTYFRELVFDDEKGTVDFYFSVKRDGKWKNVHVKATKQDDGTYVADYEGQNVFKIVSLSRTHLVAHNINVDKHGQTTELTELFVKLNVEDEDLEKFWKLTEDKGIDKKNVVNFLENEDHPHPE
Put plainly: competitive displacement of 1-aminoanthracene, fluorescence. The note with it: read-out: Kdapp.

The target of test [2] is T2, porcine OBP (6-His-pOBP) (Sus scrofa, UniProt P81245).
T2 construct: monomer
T2 sequence (P81245 1-157): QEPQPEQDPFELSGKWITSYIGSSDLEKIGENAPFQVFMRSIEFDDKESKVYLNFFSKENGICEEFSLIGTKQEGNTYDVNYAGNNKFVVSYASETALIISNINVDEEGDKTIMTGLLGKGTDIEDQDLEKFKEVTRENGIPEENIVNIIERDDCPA
Described as above. The note with it: read-out: Kdapp.

Test [3] has as its target T1, bovine OBP (6-His-bOBP). The experiment in a line: retention on OBP-Ni-NTA agarose filter; chromatography-MS. As to conditions: 10-40 μM ligand loaded; submillimolar immobilised OBP; uncoupled resin as control.
Test [4] deals with T2, porcine OBP (6-His-pOBP). The experiment in a line: retention on OBP-Ni-NTA agarose filter; eluate quantified. The note with it: 5 and 10 μM ligand loaded; submillimolar immobilised OBP; uncoupled resin as control.
Test [5] concerns the target T2, porcine OBP (6-His-pOBP). The experiment in a line: retention on OBP-Ni-NTA agarose filter, chromatography-MS. As to conditions: 0.34 μM ligand loaded; submillimolar immobilised OBP.
For test [6], the target named is T1, bovine OBP (6-His-bOBP). Put plainly: direct fluorescence titration.
The target of test [7] is T2, porcine OBP (6-His-pOBP). Put plainly: direct fluorescence titration.

For `CC(C)=CCC/C(C)=C/CC/C(C)=C/CO` [farnesol], the IC50 at bovine OBP (6-His-bOBP) [1] turned out to be 3.7 µM; on porcine OBP (6-His-pOBP) [2] it was 0.77 µM. Regarding `CCCC(=O)N[C@H]1CCOC1=O` [C4AHL, N-butyryl-L-homoserine-lactone], the “% retention” value at bovine OBP (6-His-bOBP) [3] was 63.2±5.8%-80.6±4.2%.

With `Cn1c2cccc(=O)c-2nc2ccccc21` [pyocyanin], on porcine OBP (6-His-pOBP) [4], the “% retention” value is 66±13% and 85±15%. On to `CCCCCCCCCC(=O)CC(=O)N[C@H]1CCOC1=O` [oxo-C12AHL, N-(3-oxododecanoil)-L-homoserine-lactone], for which, at porcine OBP (6-His-pOBP) [5], the “% bound” value is listed as 89.2±2.4%. One may read the Kd as a measure of binding affinity in units of concentration. Lower therefore signals a tighter complex. With `Nc1cccc2cc3ccccc3cc12` [1-aminoanthracene], the Kd came out at 0.72 µM at bovine OBP (6-His-bOBP) [6] and 0.77 µM on porcine OBP (6-His-pOBP) [7].
